Consider one compound from patent publication US20120083471A1, “Novel Compounds, Pharmaceutical Compositions Containing Same, Methods of Use for Same, and Methods for Preparing Same” (priority 2008, published 2012).

Common to all, as to type: in vivo, mouse
For assay [1], the system named is DIO mice. Kind of assay: Chronic 20 d FSG67 treatment of DIO mice, reversibility of weight loss. The text has this: DIO and lean mouse models. All animal experimentation was done in accordance with guidelines on animal care and use as established by the Johns Hopkins University School of Medicine IACUC. DIO C57BL6J male mice were obtained from Jackson Laboratory (Bar Harbor, ME) and fed a synthetic diet comprised of 60% calories from fat, 20% from carbohydrate, and 20% from protein (5.2 kcal/g) post-weaning through the experimental procedures (D12492i, Research Diets, Inc., New Brunswick, N.J.). For lean animal studies, twelve-week old C57BL6J male mice (Jackson Laboratory, Bar Harbor, Me.) were fed rodent chow comprised of 13% calories from fat, 58% from carbohydrate, and 29% from protein (4.1 kcal/g) (Prolab RMH 2500, PMI Nutrition International Inc., Brentwood, Mo.). Mice were maintained in 12 hr light-dark cycle at 25° C. for 1 week for acclimatization prior to treatment. In all studies, FSG67 (FASgen, Inc., Baltimore, Md.) was dissolved in RPMI 1640 (Invitrogen, Carlsbad, Calif.).
(§1) For acute studies, 6 DIO or lean mice were treated with a single dose of FSG67 (20 mg/kg, i.p.) approximately 3 hrs past lights-on. Animal weights and food consumption were measured 18 h after treatment. Following euthanization, the hypothalmuses were harvested to measure orexigenic and anorexigenic neuropeptide gene expression. In the chronic studies, DIO mice, 4-10 animals per group, were treated daily with FSG67 (5 mg/kg, i.p.) or with RMPI vehicle for the days indicated. Body weight and food intake were measured daily. In one study, a cohort of mice was pair-fed with amounts consumed by the FSG67-treated animals and mice were monitored with indirect calorimetry (Oxymax Equal Flow System®, Columbus Instruments, Columbus, Ohio). Measurements of VO2 (ml/kg/hr) and VCO2 (ml/kg/hr) were performed and recorded every 15 min. The respiratory exchange ratio (RER) was calculated by Oxymax software, version 5.9, and is defined as ratio of VCO2 to VO2 33. After completion of the treatment course, animals were euthanized by CO2 inhalation 4 hrs following the final dose of FSG67. Tissues were harvested immediately for RNA extraction; serum was collected and analyzed for glucose, cholesterol, and triglyceride measurements (Bioanalytics, Gaithersburg, Md.). Fresh liver tissue was snap frozen in liquid N2, sectioned, and stained with hematoxylin and Oil Red O to visualize triglyceride droplets.
The first chronic treatment experiment was designed to test if weight loss induced by FSG67 was reversible. Four DIO mice per group were treated with FSG67 or vehicle for 20 days. For the entire 32 d trial, weight and food consumption were recorded daily until the FSG67 treated animals regained their original weight. During FSG67 treatment (days 0-20), the mice lost 10.3±0.6% of their body mass while controls gained 4.0±0.5% (p<0.0001, 2-way ANOVA) (FIG. 12a). Average food consumption was reduced during FSG67 treatment (2.6±0.1 g/d, days 1-20) compared to vehicle controls (3.1±0.1 g) (p=0.0008, 2-way ANOVA) (FIG. 12b). Following cessation of treatment, food consumption increased in the FSG67 treatment group to an average of 3.5±0.1 g/d (days 21-32) representing a significant increase in food intake compared to vehicle controls 3.2±0.1 g/d (p=0.006, 2-way ANOVA). The FSG67 treated animals achieved their average pre-treatment weight 11 days following termination of treatment (FIG. 12a).

Assay [2] relates to DIO mice. Briefly: 5-day dose ranging study in DIO mice. Particulars: 5 days. The procedure: To determine the dose of FSG67 suitable for chronic treatment, we performed a 5-day dose ranging study in DIO mice, four per group, with daily intraperitoneal doses of 1, 2, and 5 mg/kg (FIG. 17). The 5 mg/kg dose led to significant weight loss of 3.9% compared to vehicle controls (p=0.008, 2-way ANOVA). This dose was chosen for the subsequent chronic treatment experiments.

For assay [3], the system named is hypothalamic neuropeptide expression. Kind of assay: Real-time RT-PCR of hypothalamic neuropeptides in lean mice after single dose. Particulars: single 20 mg/kg. The procedure: as §1
Real-time RT-PCR. Hypothalamus, liver, and WAT of DIO and lean mice were harvested and immediately frozen in liquid nitrogen. Total RNA was isolated and real-time quantitative RT-PCR was performed as previously described (13). Gene-specific primer pairs were designed using Primer3 software (http://www-genome.wi.mit.edu/cgi-bin/primer/primer3_www.cgi/). […]
Acute and chronic FSG67 treatment altered hypothalamic neuropeptide expression. Hypothalamic peptide expression was measured in the lean and DIO mice treated with a single dose of FSG67 (see FIG. 11) and in the chronically treated DIO mice (see FIG. 12) to further asses the mechanism responsible for reduced food intake. […]

“Also recorded” adds a separate entry of the source.

Take `CCCCCCCCCS(=O)(=O)Nc1ccccc1C(=O)O` [Compound 15g, 2-(Nonylsulfonamido)benzoic acid]: the “time to pre-treatment weight following termination of treatment” value in assay [1] amounted to 11 days. In addition, the “body mass lost during treatment” value in assay [1] (5 mg/kg ip daily, 20 d) is given as 10.3±0.6%. Besides, in assay [1] (5 mg/kg ip daily, days 1-20), the “food consumption during treatment” value was determined as 2.6 ± 0.1 g/day. Also, the “food consumption following cessation of treatment” value in assay [1] (days 21-32) stood at 3.5 ± 0.1 g/day. Moreover, the “day of return to original weight” value in assay [1] (treatment terminated at day 20) worked out at 32 days. Also, in assay [2] (5 mg/kg ip daily), the “weight loss compared to vehicle controls” value worked out at 3.9%. Also, the “minimum dose that led to significant weight loss” value in assay [2] (daily ip, doses 1, 2, 5 mg/kg) is 5 mg/kg. In addition, in assay [3] (compared to fasted mice), the “hypothalamic NPY expression” value is “significantly reduced”. Further, the “hypothalamic AGRP expression” value in assay [3] (compared to vehicle control and fasted mice, listed as FSG67, 20 mg/kg) is given as “substantially diminished”. Besides, the “hypothalamic POMC and CART expression” value in assay [3] (listed as FSG67, 20 mg/kg) is “not affected; also recorded: unaffected”.
